IC50 data for 25 molecules are collected here from US20250282794A1 (CURADEV PHARMA LTD, priority 2022, published 2025).

As usually defined, the IC50 is the concentration at which inhibition is half-maximal.

This test deals with recombinant full length HPK-1 enzyme (Homo sapiens (Human), UniProt Q92918). Briefly: HPK-1 biochemical enzyme assay (ADP-Glo kinase inhibition). The conditions noted are these: recombinant full length HPK-1 6.8 nM, 10 μM ATP, 12.5 μM MBP, 30 mins at 25° C. A digest of the protocol: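 ADP-Glo readout of ADP formed after a 30 min, 25° C. reaction of 6.8 nM full-length HPK-1 with swine myelin basic protein (12.5 μM) and ATP (10 μM) in Tris pH 7.4 buffer with MgCl2, DTT and BSA. Ten compound concentrations tested; percent inhibition set against vehicle (0%) and no-enzyme (100%) controls gave IC50.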
recombinant full length HPK-1 enzyme, sequence (Q92918 whole entry, species assumed): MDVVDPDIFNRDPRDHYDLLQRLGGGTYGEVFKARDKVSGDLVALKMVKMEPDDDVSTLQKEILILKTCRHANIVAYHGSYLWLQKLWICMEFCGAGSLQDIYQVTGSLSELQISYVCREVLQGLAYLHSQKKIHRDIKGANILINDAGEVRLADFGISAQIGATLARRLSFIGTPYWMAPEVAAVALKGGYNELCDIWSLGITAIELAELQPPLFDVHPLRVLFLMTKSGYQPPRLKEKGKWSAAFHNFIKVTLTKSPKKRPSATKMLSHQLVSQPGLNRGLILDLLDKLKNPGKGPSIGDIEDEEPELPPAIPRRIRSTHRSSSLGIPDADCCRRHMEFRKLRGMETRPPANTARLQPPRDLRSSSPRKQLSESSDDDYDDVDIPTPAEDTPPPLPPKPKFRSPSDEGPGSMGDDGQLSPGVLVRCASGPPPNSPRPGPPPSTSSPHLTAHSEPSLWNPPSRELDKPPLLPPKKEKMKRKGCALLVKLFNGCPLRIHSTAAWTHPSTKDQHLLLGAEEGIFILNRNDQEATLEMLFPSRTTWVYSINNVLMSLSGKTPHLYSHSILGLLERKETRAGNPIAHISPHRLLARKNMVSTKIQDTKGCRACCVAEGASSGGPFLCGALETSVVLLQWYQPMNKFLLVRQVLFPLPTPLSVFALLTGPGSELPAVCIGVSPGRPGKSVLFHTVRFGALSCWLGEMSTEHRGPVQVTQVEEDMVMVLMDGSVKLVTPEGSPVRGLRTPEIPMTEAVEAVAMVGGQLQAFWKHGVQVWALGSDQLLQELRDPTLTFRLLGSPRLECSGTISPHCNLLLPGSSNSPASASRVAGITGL
(In general: ADP-Glo first removes unused ATP, then detects ADP through luciferase.)
For the molecule `Cc1c(Nc2cc[nH]c(=O)c2C(=O)Nc2ccc3c(c2)NC(=O)CC3)cnc2c1NCCO2` [Example 258, 4-((8-methyl-2,3-dihydro-1H-pyrido[2,3-b][1,4]oxazin-7-yl)amino)-2-oxo-N-(2-oxo-1,2,3,4-tetrahydroquinolin-7-yl)-1,2-dihydropyridine-3-carboxamide], the IC50 is 10 to 100 nM.

Turning to `Cc1c(Nc2cc[nH]c(=O)c2C(=O)Nc2ccc(N3CCN(C4CCCC4)CC3)c(F)c2)cnc2c1NCCO2` [Example 259, N-(4-(4-cyclopentylpiperazin-1-yl)-3-fluorophenyl)-4-((8-methyl-2,3-dihydro-1H-pyrido[2,3-b][1,4]oxazin-7-yl)amino)-2-oxo-1,2-dihydropyridine-3-carboxamide], the IC50 is no more than 10 nM.

Take `Cc1c(Nc2cc[nH]c(=O)c2C(=O)Nc2ccc3c(c2)C(=O)NCC3)cnc2c1NCCO2` [Example 260, 4-((8-methyl-2,3-dihydro-1H-pyrido[2,3-b][1,4]oxazin-7-yl)amino)-2-oxo-N-(1-oxo-1,2,3,4-tetrahydroisoquinolin-7-yl)-1,2-dihydropyridine-3-carboxamide]: the half-inhibitory concentration (IC50) is 100 to 1000 nM.

Turning to `Cc1c(Nc2cc[nH]c(=O)c2C(=O)Nc2ccc(N3CCN(C)CC3)c(Cl)c2)cnc2c1NCCO2` [Example 261, N-(3-chloro-4-(4-methylpiperazin-1-yl)phenyl)-4-((8-methyl-2,3-dihydro-1H-pyrido[2,3-b][1,4]oxazin-7-yl)amino)-2-oxo-1,2-dihydropyridine-3-carboxamide], the IC50 is no more than 10 nM.

For the molecule `Cc1c(Nc2cc[nH]c(=O)c2C(=O)Nc2ccc(N3CCN(S(C)(=O)=O)CC3)cc2)cnc2c1NCCO2` [Example 262, 4-((8-methyl-2,3-dihydro-1H-pyrido[2,3-b][1,4]oxazin-7-yl)amino)-N-(4-(4-(methylsulfonyl)piperazin-1-yl)phenyl)-2-oxo-1,2-dihydropyridine-3-carboxamide], the IC50 was 10 to 100 nM.

`Cc1c(Nc2cc[nH]c(=O)c2C(=O)Nc2ccc(N3CCN(C)CC3)c(N)c2)cnc2c1NCCO2` [Example 263, N-(3-Amino-4-(4-methylpiperazin-1-yl)phenyl)-4-((8-methyl-2,3-dihydro-1H-pyrido[2,3-b][1,4]oxazin-7-yl)amino)-2-oxo-1,2-dihydropyridine-3-carboxamide]: the IC50 is no more than 10 nM.

With `CCn1nccc1-c1ccc(NC(=O)c2c(Nc3cnc4c(c3C)NCCO4)cc[nH]c2=O)cc1` [Example 264, N-(4-(1-ethyl-1H-pyrazol-5-yl)phenyl)-4-((8-methyl-2,3-dihydro-1H-pyrido[2,3-b][1,4]oxazin-7-yl)amino)-2-oxo-1,2-dihydropyridine-3-carboxamide], the IC50 lay within 10 to 100 nM.

For the molecule `CCn1nc(C(F)(F)F)cc1-c1ccc(NC(=O)c2c(Nc3cnc4c(c3C)NCCO4)cc[nH]c2=O)cc1` [Example 265, N-(4-(1-ethyl-3-(trifluoromethyl)-1H-pyrazol-5-yl)phenyl)-4-((8-methyl-2,3-dihydro-1H-pyrido[2,3-b][1,4]oxazin-7-yl)amino)-2-oxo-1,2-dihydropyridine-3-carboxamide], the IC50 lay within 10 to 100 nM.

Regarding `Cc1c(Nc2cc[nH]c(=O)c2C(=O)Nc2ccc(N3CCN(C)C[C@@H]3C)cc2)cnc2c1NCCO2` [Example 266, (S)-N-(4-(2,4-dimethylpiperazin-1-yl)phenyl)-4-((8-methyl-2,3-dihydro-1H-pyrido[2,3-b][1,4]oxazin-7-yl)amino)-2-oxo-1,2-dihydropyridine-3-carboxamide], the half-maximal inhibitory concentration (IC50) was no more than 10 nM.

For the molecule `Cc1c(Nc2cc[nH]c(=O)c2C(=O)Nc2ccc(N3CCN(C)CC3=O)cc2)cnc2c1NCCO2` [Example 267, 4-((8-methyl-2,3-dihydro-1H-pyrido[2,3-b][1,4]oxazin-7-yl)amino)-N-(4-(4-methyl-2-oxopiperazin-1-yl)phenyl)-2-oxo-1,2-dihydropyridine-3-carboxamide], the IC50 was in the range of 10 to 100 nM.

Regarding `Cc1c(Nc2cc[nH]c(=O)c2C(=O)Nc2ccc(N3CCNC(=O)C3)cc2)cnc2c1NCCO2` [Example 268, 4-((8-methyl-2,3-dihydro-1H-pyrido[2,3-b][1,4]oxazin-7-yl)amino)-2-oxo-N-(4-(3-oxopiperazin-1-yl)phenyl)-1,2-dihydropyridine-3-carboxamide], the IC50 is 10 to 100 nM.

`Cc1c(Nc2cc[nH]c(=O)c2C(=O)Nc2ccc3c(c2)OCC(=O)N3)cnc2c1NCCO2` [Example 269, 4-((8-methyl-2,3-dihydro-1H-pyrido[2,3-b][1,4]oxazin-7-yl)amino)-2-oxo-N-(3-oxo-3,4-dihydro-2H-benzo[b][1,4]oxazin-7-yl)-1,2-dihydropyridine-3-carboxamide]: the IC50 was 10 to 100 nM.

As to `Cc1c(Nc2cc[nH]c(=O)c2C(=O)Nc2ccc(N3CCN(C)CC3)c(Br)c2)cnc2c1NCCO2` [Example 270, N-(3-bromo-4-(4-methylpiperazin-1-yl)phenyl)-4-((8-methyl-2,3-dihydro-1H-pyrido[2,3-b][1,4]oxazin-7-yl)amino)-2-oxo-1,2-dihydropyridine-3-carboxamide], the half-maximal inhibitory concentration (IC50) is no more than 10 nM.

Regarding `Cc1c(Nc2cc[nH]c(=O)c2C(=O)Nc2ccc(-c3ccnn3C(C)C)cc2)cnc2c1NCCO2` [Example 271, N-(4-(1-isopropyl-1H-pyrazol-5-yl)phenyl)-4-((8-methyl-2,3-dihydro-1H-pyrido[2,3-b][1,4]oxazin-7-yl)amino)-2-oxo-1,2-dihydropyridine-3-carboxamide], the half-maximal inhibitory concentration (IC50) is 10 to 100 nM.

Turning to `Cc1c(Nc2cc[nH]c(=O)c2C(=O)Nc2ccc(N3CCN(C)C(=O)C3)cc2)cnc2c1NCCO2` [Example 272, 4-((8-methyl-2,3-dihydro-1H-pyrido[2,3-b][1,4]oxazin-7-yl)amino)-N-(4-(4-methyl-3-oxopiperazin-1-yl)phenyl)-2-oxo-1,2-dihydropyridine-3-carboxamide], the IC50 was in the range of 10 to 100 nM.

Consider `Cc1c(Nc2cc[nH]c(=O)c2C(=O)Nc2ccc3ncc(O)nc3c2)cnc2c1NCCO2` [Example 273, N-(3-hydroxyquinoxalin-6-yl)-4-((8-methyl-2,3-dihydro-1H-pyrido[2,3-b][1,4]oxazin-7-yl)amino)-2-oxo-1,2-dihydropyridine-3-carboxamide], for which the IC50 was 100 to 1000 nM.

Turning to `Cc1c(Nc2cc[nH]c(=O)c2C(=O)Nc2ccc(N3CCC(N4CCN(C)CC4)CC3)cc2)cnc2c1NCCO2` [Example 274, 4-((8-methyl-2,3-dihydro-1H-pyrido[2,3-b][1,4]oxazin-7-yl)amino)-N-(4-(4-(4-methylpiperazin-1-yl)piperidin-1-yl)phenyl)-2-oxo-1,2-dihydropyridine-3-carboxamide], the 50% inhibitory concentration (IC50) is no more than 10 nM.

As for `COCCN1CCC(c2ccc(NC(=O)c3c(Nc4cnc5c(c4C)NCCO5)cc[nH]c3=O)cc2F)CC1` [Example 276, N-(3-fluoro-4-(1-(2-methoxyethyl)piperidin-4-yl)phenyl)-4-((8-methyl-2,3-dihydro-1H-pyrido[2,3-b][1,4]oxazin-7-yl)amino)-2-oxo-1,2-dihydropyridine-3-carboxamide], the IC50 is no more than 10 nM.

Take `Cc1c(Nc2cc[nH]c(=O)c2C(=O)Nc2ccc(N3CCC(C)CC3)cc2)cnc2c1NCCO2` [Example 280, 4-((8-methyl-2,3-dihydro-1H-pyrido[2,3-b][1,4]oxazin-7-yl)amino)-N-(4-(4-methylpiperidin-1-yl)phenyl)-2-oxo-1,2-dihydropyridine-3-carboxamide]: the IC50 was 10 to 100 nM.

As for `CCCCC(CC)CNC(=O)c1ccc(NC(=O)c2c(Nc3cnc4c(c3C)NCCO4)cc[nH]c2=O)cc1` (stereo not shown) [Example 281, N-(4-((2-ethylhexyl)carbamoyl)phenyl)-4-((8-methyl-2,3-dihydro-1H-pyrido[2,3-b][1,4]oxazin-7-yl)amino)-2-oxo-1,2-dihydropyridine-3-carboxamide], the IC50 was in the range of 10 to 100 nM.

`Cc1c(Nc2cc[nH]c(=O)c2C(=O)Nc2ccc(N3CCN(CC(C)(C)O)CC3)cc2)cnc2c1NCCO2` [Example 282, N-(4-(4-(2-hydroxy-2-methylpropyl)piperazin-1-yl)phenyl)-4-((8-methyl-2,3-dihydro-1H-pyrido[2,3-b][1,4]oxazin-7-yl)amino)-2-oxo-1,2-dihydropyridine-3-carboxamide]: the IC50 is no more than 10 nM.

Take `Cc1c(Nc2cc[nH]c(=O)c2C(=O)Nc2ccc(N3CCN(C(=O)C4CCCC4)CC3)cc2)cnc2c1NCCO2` [Example 283, N-(4-(4-(cyclopentanecarbonyl)piperazin-1-yl)phenyl)-4-((8-methyl-2,3-dihydro-1H-pyrido[2,3-b][1,4]oxazin-7-yl)amino)-2-oxo-1,2-dihydropyridine-3-carboxamide]: the IC50 was no more than 10 nM.

Turning to `COCC(=O)N1CCN(c2ccc(NC(=O)c3c(Nc4cnc5c(c4C)NCCO5)cc[nH]c3=O)cc2)CC1` [Example 284, N-(4-(4-(2-methoxyacetyl)piperazin-1-yl)phenyl)-4-((8-methyl-2,3-dihydro-1H-pyrido[2,3-b][1,4]oxazin-7-yl)amino)-2-oxo-1,2-dihydropyridine-3-carboxamide], the IC50 was no more than 10 nM.

Consider `COCCC(=O)N1CCN(c2ccc(NC(=O)c3c(Nc4cnc5c(c4C)NCCO5)cc[nH]c3=O)cc2)CC1` [Example 285, N-(4-(4-(3-methoxypropanoyl)piperazin-1-yl)phenyl)-4-((8-methyl-2,3-dihydro-1H-pyrido[2,3-b][1,4]oxazin-7-yl)amino)-2-oxo-1,2-dihydropyridine-3-carboxamide], for which the IC50 is no more than 10 nM.

Turning to `Cc1c(Nc2cc[nH]c(=O)c2C(=O)Nc2ccc(N3CCN(c4cccnc4)CC3)cc2)cnc2c1NCCO2` [Example 286, 4-((8-methyl-2,3-dihydro-1H-pyrido[2,3-b][1,4]oxazin-7-yl)amino)-2-oxo-N-(4-(4-(pyridin-3-yl)piperazin-1-yl)phenyl)-1,2-dihydropyridine-3-carboxamide], the IC50 is no more than 10 nM.
